Source: patent publication US20240150377A1, “MODULATORS OF CYSTIC FIBROSIS TRANSMEMBRANE CONDUCTANCE REGULATOR” (VERTEX PHARMACEUTICALS INCORPORATED, priority 2020, published 2024)
Where two headings read alike, the source gives them in different places. Blank lines part the entries; values can stand above or below the compound they belong to.

How the values were obtained:
CFTR [1] = target: T1, CFTR (Homo sapiens, UniProt P13569); test: Membrane potential dye, Enteroid Assay A; type: cell-based; conditions: Table 6; for Ent. A Max Activity: chloride transport as % of triple combination control (Enteroid Assay A); for EC50: human enteroid cells, 18-24 hours, acute 10 μM forskolin and 300 nM ivacaftor, read-out: Ent. A EC50
Summary of the method: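 % Activity: chloride transport relative to a 3 μM/3 μM corrector pair plus 300 nM acute potentiator control. Primary human enteroid cells, 18-24 h compound exposure at 37 °C; membrane potential dye (methyl oxonol) fluorescence over 15 min after forskolin (10 μM)/IBMX (100 μM)/Compound III (300 nM) stimulation in chloride-free buffer.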
Target sequence in this assay (P13569 with tags, fused parts or gaps DEL508-508): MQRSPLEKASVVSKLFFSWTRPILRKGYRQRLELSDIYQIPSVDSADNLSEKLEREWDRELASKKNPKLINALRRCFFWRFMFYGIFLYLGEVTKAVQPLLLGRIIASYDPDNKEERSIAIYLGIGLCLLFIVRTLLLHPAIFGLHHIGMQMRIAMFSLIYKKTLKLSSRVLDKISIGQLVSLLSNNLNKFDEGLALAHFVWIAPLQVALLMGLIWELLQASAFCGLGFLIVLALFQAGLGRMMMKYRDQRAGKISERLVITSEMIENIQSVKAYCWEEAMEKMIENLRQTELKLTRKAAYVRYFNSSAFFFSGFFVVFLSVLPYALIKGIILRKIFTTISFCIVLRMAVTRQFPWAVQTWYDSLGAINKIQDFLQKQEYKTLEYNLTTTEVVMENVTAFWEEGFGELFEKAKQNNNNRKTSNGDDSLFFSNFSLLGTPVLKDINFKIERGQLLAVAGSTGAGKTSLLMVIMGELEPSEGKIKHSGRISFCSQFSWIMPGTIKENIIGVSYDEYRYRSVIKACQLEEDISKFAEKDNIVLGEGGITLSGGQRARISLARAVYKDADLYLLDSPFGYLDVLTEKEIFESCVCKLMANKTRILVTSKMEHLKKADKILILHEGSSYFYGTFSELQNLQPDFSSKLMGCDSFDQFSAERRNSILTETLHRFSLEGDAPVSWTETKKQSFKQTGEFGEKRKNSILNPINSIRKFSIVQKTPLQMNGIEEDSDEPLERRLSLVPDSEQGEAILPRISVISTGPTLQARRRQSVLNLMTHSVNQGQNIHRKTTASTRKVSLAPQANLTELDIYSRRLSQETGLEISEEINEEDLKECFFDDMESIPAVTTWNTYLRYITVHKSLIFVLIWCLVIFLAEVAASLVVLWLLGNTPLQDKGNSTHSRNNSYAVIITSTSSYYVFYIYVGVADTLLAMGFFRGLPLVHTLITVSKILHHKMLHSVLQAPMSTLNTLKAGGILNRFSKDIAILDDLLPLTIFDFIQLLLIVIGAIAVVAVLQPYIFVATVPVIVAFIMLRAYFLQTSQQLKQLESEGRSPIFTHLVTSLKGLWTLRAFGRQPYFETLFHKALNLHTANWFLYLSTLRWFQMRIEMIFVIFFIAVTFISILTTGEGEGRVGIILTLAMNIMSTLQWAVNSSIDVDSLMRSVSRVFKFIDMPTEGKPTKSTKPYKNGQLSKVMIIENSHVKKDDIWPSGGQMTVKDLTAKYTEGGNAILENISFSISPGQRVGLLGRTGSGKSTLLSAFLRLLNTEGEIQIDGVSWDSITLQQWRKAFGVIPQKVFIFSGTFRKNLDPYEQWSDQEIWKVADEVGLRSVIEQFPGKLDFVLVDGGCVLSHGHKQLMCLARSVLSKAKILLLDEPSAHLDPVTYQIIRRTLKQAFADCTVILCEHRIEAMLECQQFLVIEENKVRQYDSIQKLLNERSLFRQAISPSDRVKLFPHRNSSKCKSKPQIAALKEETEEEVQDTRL

[2] = amide bond, 13-membered ring, DMF
CFTR [3] = target: T2, CFTR (Homo sapiens, UniProt P13569, DEL508-508); test: HBE2 assay: Ussing chamber assay of CFTR-mediated short-circuit currents; type: cell-based; conditions: F508del/MF-HBE cells, with 44 nM potentiator, 18-24 hours, 20% human serum
T2 construct: endogenous in cells; host or cells: primary human bronchial epithelial cells from CF subjects (F508del/MF-HBE), differentiated at air-liquid interface
Summary of the method: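 Corrector activity read as CFTR-dependent ISC (μA/cm^2): peak forskolin current minus post-inhibitor steady state. Measured at 37 °C, voltage clamp at 0 mV, on F508del/MF-HBE epithelia grown >14 days air-liquid interface in Ussing chambers.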

CFTR [4] = target: T2, CFTR; test: HBE assay: Ussing chamber assay of CFTR-mediated short-circuit currents; type: cell-based; conditions: HBE assay; for EC50: read-out: HBE EC50; for Emax: read-out: HBE Max activity (%)
Summary of the method: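 CFTR-mediated Isc (μA/cm²) equals the peak response to apical 20 μM forskolin minus the residual after a 20 μM each BPO/GlyH-101/CFTR inhibitor 172 cocktail, recorded in Ussing chambers at Vhold 0 mV, 37 °C, pH 7.4, with 30 μM apical amiloride. Cells were F508del/MF HBE cultures preincubated 18-24 h with corrector (concentration range or 10 μM) plus 1 μM ivacaftor in 20% human serum.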

[5] = amide bond, 13-membered ring, DMF, 25.0 °C, 0.33 h
CFTR [6] = target: T1, CFTR; test: standard Ussing Chamber Assay for CFTR potentiator activity; type: cell-based; conditions: qualitative statement
Target sequence in this assay (P13569 whole entry, species assumed): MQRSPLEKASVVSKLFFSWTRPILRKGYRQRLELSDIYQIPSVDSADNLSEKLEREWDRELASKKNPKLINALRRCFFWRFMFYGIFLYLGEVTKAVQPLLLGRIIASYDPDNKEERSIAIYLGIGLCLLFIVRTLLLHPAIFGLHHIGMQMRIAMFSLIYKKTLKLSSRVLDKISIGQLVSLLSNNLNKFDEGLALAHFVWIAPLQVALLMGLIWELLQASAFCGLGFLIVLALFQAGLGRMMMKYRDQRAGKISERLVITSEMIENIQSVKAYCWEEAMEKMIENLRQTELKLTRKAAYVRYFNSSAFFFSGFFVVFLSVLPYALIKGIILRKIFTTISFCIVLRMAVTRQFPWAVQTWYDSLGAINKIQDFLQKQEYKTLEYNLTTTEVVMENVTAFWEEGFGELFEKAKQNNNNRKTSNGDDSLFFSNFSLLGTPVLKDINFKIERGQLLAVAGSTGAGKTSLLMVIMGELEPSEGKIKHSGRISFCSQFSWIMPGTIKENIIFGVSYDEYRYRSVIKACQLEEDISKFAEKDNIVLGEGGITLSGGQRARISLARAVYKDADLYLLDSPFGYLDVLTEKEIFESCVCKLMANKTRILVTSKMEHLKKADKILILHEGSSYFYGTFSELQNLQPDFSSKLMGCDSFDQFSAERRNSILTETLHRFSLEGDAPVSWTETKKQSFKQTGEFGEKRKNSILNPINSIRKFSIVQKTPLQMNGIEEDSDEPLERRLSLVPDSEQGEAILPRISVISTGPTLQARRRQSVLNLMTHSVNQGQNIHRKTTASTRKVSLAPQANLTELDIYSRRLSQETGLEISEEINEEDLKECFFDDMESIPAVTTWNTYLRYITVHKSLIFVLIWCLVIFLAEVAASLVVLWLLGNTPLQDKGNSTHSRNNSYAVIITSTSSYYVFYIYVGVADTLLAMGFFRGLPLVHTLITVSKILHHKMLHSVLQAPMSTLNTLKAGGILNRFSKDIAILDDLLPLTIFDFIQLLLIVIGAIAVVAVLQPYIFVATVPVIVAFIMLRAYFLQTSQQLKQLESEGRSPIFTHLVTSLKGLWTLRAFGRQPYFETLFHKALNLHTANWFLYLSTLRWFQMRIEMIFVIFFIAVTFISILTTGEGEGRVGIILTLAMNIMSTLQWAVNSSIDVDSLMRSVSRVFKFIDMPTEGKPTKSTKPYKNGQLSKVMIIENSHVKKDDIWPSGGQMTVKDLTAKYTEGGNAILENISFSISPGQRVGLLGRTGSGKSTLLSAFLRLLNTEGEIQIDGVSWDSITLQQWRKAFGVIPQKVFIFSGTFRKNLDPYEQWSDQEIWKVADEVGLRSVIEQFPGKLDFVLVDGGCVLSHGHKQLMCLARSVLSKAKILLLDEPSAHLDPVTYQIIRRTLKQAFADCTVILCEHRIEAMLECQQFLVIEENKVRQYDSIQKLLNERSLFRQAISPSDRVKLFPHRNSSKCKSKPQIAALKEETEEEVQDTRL

T2 sequence (P13569 with tags, fused parts or gaps DEL508-508): as the sequence (P13569 with tags, fused parts or gaps DEL508-508) above

Ent. A Max Activity (CFTR [1]): ++ (++ is 30-60%)
EC50 (CFTR [1]): 1 to 3 µM
Compound: Cc1cccc(C)c1-c1cc2nc(n1)NS(=O)(=O)c1cccc(c1)C(=O)N(C)CC(COCc1ccccc1)O2 (stereo not shown) [Compound 99, 10-(benzyloxymethyl)-6-(2,6-dimethylphenyl)-12-methyl-2,2-dioxo-9-oxa-2λ^6-thia-3,5,12,19-tetrazatricyclo[12.3.1.14,8]nonadeca-1(18),4(19),5,7,14,16-hexaen-13-one]
ring closure, isolated yield ([2]; from CNCC(COCc1ccccc1)Oc1cc(-c2c(C)cccc2C)nc(NS(=O)(=O)c2cccc(C(=O)O)c2)n1, HATU/DIEA, 33.6 mM, 25.0 °C, 0.25 h): 58%

Ent. A Max Activity (CFTR [1]): +++ (+++ is >60%)
EC50 (CFTR [1]): < 1 µM
Compound: Cc1cccc(C)c1-c1cc2nc(n1)NS(=O)(=O)c1cccc(c1)C(=O)N(C)CC(c1ccc(Br)cc1)O2 (stereo not shown) [Compound 8, 10-(4-Bromophenyl)-6-(2,6-dimethylphenyl)-12-methyl-2,2-dioxo-9-oxa-2λ^6-thia-3,5,12,19-tetrazatricyclo[12.3.1.14,8]nonadeca-1(18),4(19),5,7,14,16-hexaen-13-one]
ring closure, isolated yield ([2]; from CNCC(Oc1cc(-c2c(C)cccc2C)nc(NS(=O)(=O)c2cccc(C(=O)O)c2)n1)c1ccc(Br)cc1, HATU/DIEA, 29.7 mM, 25.0 °C, 2.0 h, 2 steps): 61%

HBE2 Activity at 3 μM (%) (CFTR [3]): +++ (+++ is >60+)
EC50 (CFTR [3]): < 1000 nM
Emax (CFTR [3]; read-out: HBE2 Max activity (%)): > 60%
EC50 (CFTR [4]): < 1000 nM
Emax (CFTR [4]): > 60%
Compound: Cc1cccc(C)c1-c1cc2nc(n1)NS(=O)(=O)c1cccc(c1)C(=O)N(Cc1ncc(OC(C)C)cn1)[C@H](CC1CCC1)CO2 [Compound 1297, (11R)-11-(Cyclobutylmethyl)-6-(2,6-dimethylphenyl)-12-[(5-isopropoxypyrimidin-2-yl)methyl]-2,2-dioxo-9-oxa-2λ^6-thia-3,5,12,19-tetrazatricyclo[12.3.1.14,8]nonadeca-1(18),4(19),5,7,14,16-hexaen-13-one]
ring closure, isolated yield ([2]; from Cc1cccc(C)c1-c1cc(OC[C@@H](CC2CCC2)NCc2ncc(OC(C)C)cn2)nc(NS(=O)(=O)c2cccc(C(=O)O)c2)n1, CDMT/NMM, 30.4 mM, 15.0 h): 58%

Ent. A Max Activity (CFTR [1]): ++ (++ is 30-60%)
EC50 (CFTR [1]): 3 to 30 µM
Compound: Cc1cccc(C)c1-c1cc2nc(n1)NS(=O)(=O)c1cccc(c1)C(=O)N(C)CC(CNC(=O)OC(C)(C)C)O2 (stereo not shown) [Compound 97, tert-Butyl N-[[6-(2,6-dimethylphenyl)-12-methyl-2,2,13-trioxo-9-oxa-2λ^6-thia-3,5,12,19-tetrazatricyclo[12.3.1.14,8]nonadeca-1(18),4(19),5,7,14,16-hexaen-10-yl]methyl]carbamate]
ring closure, isolated yield ([2]; from CNCC(CNC(=O)OC(C)(C)C)Oc1cc(-c2c(C)cccc2C)nc(NS(=O)(=O)c2cccc(C(=O)O)c2)n1, HATU/DIEA, 37.9 mM, 25.0 °C, 0.25 h): 42%

HBE2 Activity at 3 μM (%) (CFTR [3]): +++ (+++ is >60+)
EC50 (CFTR [4]): < 1000 nM
Emax (CFTR [4]): > 60%
Compound: Cc1cccc(C)c1-c1cc2nc(n1)NS(=O)(=O)c1cccc(c1)C(=O)N(Cc1ncc(OC(C)C)cn1)[C@H](CCC(C)(C)C)CO2 [Compound 1296, (11R)-11-(3,3-Dimethylbutyl)-6-(2,6-dimethylphenyl)-12-[(5-isopropoxypyrimidin-2-yl)methyl]-2,2-dioxo-9-oxa-2λ^6-thia-3,5,12,19-tetrazatricyclo[12.3.1.14,8]nonadeca-1(18),4(19),5,7,14,16-hexaen-13-one]
ring closure, isolated yield ([2]; from Cc1cccc(C)c1-c1cc(OC[C@@H](CCC(C)(C)C)NCc2ncc(OC(C)C)cn2)nc(NS(=O)(=O)c2cccc(C(=O)O)c2)n1, CDMT/NMM, 29.6 mM, 21.0 h): 60%

Compound: CCOC(=O)CCCCN1C(=O)c2cccc(n2)S(=O)(=O)Nc2nc(cc(-c3c(C)cccc3C)n2)OC[C@H]1CC(C)(C)C
ring closure, crude yield ([5]; from CCOC(=O)CCCCN[C@@H](COc1cc(-c2c(C)cccc2C)nc(NS(=O)(=O)c2cccc(C(=O)O)n2)n1)CC(C)(C)C, HATU/DIEA, 26.1 mM): 100%

CFTR modulatory activity (CFTR [6]): confirmed
Compound: C[C@@H]1CCCCC[C@](O)(C(F)(F)F)C2=NN=C(O2)c2nc(c(C(F)(F)F)cc2N)O1 [(6R,12R)-17-amino-12-methyl-6,15-bis(trifluoromethyl)-13,19-dioxa-3,4,18-triazatricyclo[12.3.1.12,5]nonadeca-1(18),2,4,14,16-pentaen-6-ol]

Compound: COCN1c2nc(cc(-c3c(C)cccc3C)n2)OC[C@@H](CC(C)C)NC(=O)c2cccc(c2)S1(=O)=O
ring closure, crude yield ([5]; from COCN(c1nc(OC[C@H](N)CC(C)C)cc(-c2c(C)cccc2C)n1)S(=O)(=O)c1cccc(C(=O)O)c1, HATU/Et3N, 106.0 mM): 100%
